Experimental data reported in patent publication US20200231912A1, “USE OF STEVIOL GLYCOSIDE IN MALTING” (Corn Products Development, Inc., priority 2017, published 2020).

Columns and labels:
two row barley [1] = test: Malting trials: overall malt quality against defined specifications; settings: Example 2; inferred from content in compositions A-E and Table 6
Description: Cereal grain malting trials were performed according to the methods described herein to compare Control malts # 1, 2 and 3 with Test malts # 1, 2, 3, 4 and 5, where steviol glycosides were added at the following rates: • Test 1: 0.00019 kg per 1 metric ton of unmalted barley; • Test 2: 0.00013 kg per 1 metric ton of unmalted barley; • Test 3: 0.00024 kg per 1 metric ton of unmalted barley; • Test 4: 0.00070 kg per 1 metric ton of unmalted barley; • Test 5: 0.00043 kg per 1 metric ton of unmalted barley; The steviol glycosides were added at the beginning of the germination process, prior to kilning. Table 5 illustrates the weight percent ranges of each steviol glycoside in a mixture of steviol glycosides.
Control malts # 1, 2 and 3 and Test malts # 1, 2, 3, 4 and 5 were prepared as follows. The general process is illustrated in FIG. 10.
Control Malt # 1 was produced according to the steeping process described in FIG. 10, which was performed in flat bottomed steep vessel, adding 400 kg of 100% two row barley having a 10% moisture content to water. The steeping process included three steeping steps, including a steeping step which was conducted for 1:15 hours and followed by a drying step which was aeration at 19-21° C. during 6 hours. The steeping step was repeated two times. When the steeping degree of the cereal grains measured ≥42%, the water was drained off in preparation for germination. Steviol glycosides and/or gibberellic acid were not added during Control Malt # 1 production.
The germinating step of Control Malt # 1 is described in FIG. 10, which occurred in a typical rectangular germination box (e.g., unit type Saladin) for 5.5 days. The ventilation air temperature during the germinating step was 15-18° C. from the first until the third germination day, followed by ventilation air temperature of 11-15° C. from the third until the last germination day, and the moisture content was 43-47%. The malt turning procedures, which provide the mixing for the germinating kernels, were used first after 24 hours of germination and second after 48 hours of germination. Once the germination time achieved the expected value for Control Malt # 1, the kernels were kilned.
The kilning step is then described in FIG. 10 as using a single floor kiln with gas heating. The kernels were heated for 16:30 hours using hot air from 55-70° C., then for 5 hours using hot air at 80° C. […] The malt was cleaned by removing the rootlets using a malt deculming screw, and the cleaned malt was packaged into 25 kilogram bags.

two row barley [2] = test: Germination rate assay; assay type: in vivo; settings: Example 2; 4.5 days germination; % printed
Description: The Germination rate assay informs the percentage of germinated kernels during malting. One hundred barley grains are placed inside each one of four Petri plates containing 4mL of distilled water in a paper filter. The number of germinated kernels is measured after 24, 48 and 72 hours respectively. The germination rate is defined comparing the number of germinated kernels at 24, 48 and 72 h with total number of kernels (400). Typical result for Germination rate analysis is minimum 95%.

two row barley [3] = test: Huzzar rate assay; assay type: in vivo; settings: Example 2; 4.5 days germination; % printed
Source text: The Huzzar rate assay informs the ratio of cereal kernels in which the acrospires have emerged from end of grains. A range of devices have been used as measuring aids having magnifying lenses and ruled scales with diverging lines that are arranged over the grain with the base and tip at the “0” and “1” lines and then divide the grain length into ¼, ½, ⅔, ¾, 1 and 1+ or overgrown. The results may be expressed as an average value. Typical result for Huzzar rate analysis is maximum 3%.

Molecule	impact on stimulation of barley germination (two row barley [1])	other results
C=C1C[C@@]23CC[C@H]4[C@@](C)(CCC[C@@]4(C)C(=O)O)[C@@H]2CC[C@]1(O[C@@H]1O[C@H](CO)[C@@H](O)[C@H](O)[C@H]1O[C@@H]1O[C@H](CO)[C@@H](O)[C@H](O)[C@H]1O)C3 [Steviolbioside]	do not seem to play a significant role	–
C=C1C[C@@]23CC[C@H]4[C@@](C)(CCC[C@@]4(C)C(=O)O[C@@H]4O[C@H](CO)[C@@H](O)[C@H](O)[C@H]4O[C@@H]4O[C@H](CO)[C@@H](O)[C@H](O)[C@H]4O)[C@@H]2CC[C@]1(O[C@@H]1O[C@H](CO)[C@@H](O)[C@H](O[C@@H]2O[C@H](CO)[C@@H](O)[C@H](O)[C@H]2O)[C@H]1O[C@@H]1O[C@H](CO)[C@@H](O)[C@H](O)[C@H]1O)C3 [Rebaudioside D]	do not seem to play a significant role	–
C=C1C[C@@]23CC[C@H]4[C@@](C)(CCC[C@@]4(C)C(=O)O[C@@H]4O[C@H](CO)[C@@H](O)[C@H](O)[C@H]4O)[C@@H]2CC[C@]1(O[C@@H]1O[C@H](CO)[C@@H](O)[C@H](O[C@@H]2O[C@H](CO)[C@@H](O)[C@H](O)[C@H]2O)[C@H]1O[C@@H]1O[C@H](CO)[C@@H](O)[C@H](O)[C@H]1O)C3 [Rebaudioside A]	positive impact	effect on proteolytic enzymes activity and protein breakdown (two row barley [1]): appears to have an effect
C=C1C[C@@]23CC[C@H]4[C@@](C)(CCC[C@@]4(C)C(=O)O[C@@H]4O[C@H](CO)[C@@H](O)[C@H](O)[C@H]4O)[C@@H]2CC[C@]1(O[C@@H]1O[C@H](CO)[C@@H](O)[C@H](O)[C@H]1O)C3 [Rubusoside]	do not seem to play a significant role	–
Rebaudioside F	seems to impact barley germination at certain content ranges	–
Rebaudioside C	positive impact	–
C=C1C[C@@]23CC[C@H]4[C@@](C)(CCC[C@@]4(C)C(=O)O[C@@H]4O[C@H](CO)[C@@H](O)[C@H](O)[C@H]4O)[C@@H]2CC[C@]1(O[C@@H]1O[C@H](CO)[C@@H](O)[C@H](O)[C@H]1O[C@@H]1O[C@H](CO)[C@@H](O)[C@H](O)[C@H]1O)C3 [Stevioside]	do not seem to play a significant role	–
C=C1C[C@]23C[C@@]1(O)CC[C@H]2[C@@]12C=C[C@H](O)[C@@](C)(C(=O)O1)[C@H]2[C@@H]3C(=O)O [Control 3, Gibberellic acid]	–	Germination rate (two row barley [2]): 90%; Huzzar rate (two row barley [3]): 5%
C=C1C[C@@]23CC[C@H]4[C@@](C)(CCC[C@@]4(C)C(=O)O[C@@H]4O[C@H](CO)[C@@H](O)[C@H](O)[C@H]4O)[C@@H]2CC[C@]1(O[C@@H]1O[C@H](CO)[C@@H](O)[C@H](O)[C@H]1O[C@@H]1O[C@@H](C)[C@H](O)[C@@H](O)[C@H]1O)C3 [Dulcoside A]	negative impact	–
Rebaudioside B	seems to impact barley germination at certain content ranges	–
